Values joined by “and” are separate entries in the source; they are usually repeats but may differ in a detail not shown here. Equal values may be shown once.
Columns and labels:
A549cisR cells [1] = experiment: Cell viability (CellTiter-Glo); assay type: cell-based, human; design: unit not given here; conditions: 48 h, n=1-3: biological replicates
Protocol: (§1) Cell viability was determined using the CellTiter-Glo Luminescent Cell Viability Assay. […] Subsequently, the cells were cultured in complete medium for an additional 10 days, and the resulting colonies were visualized by staining with crystal violet and quantified using ImageJ software. For cell cycle analysis, cells fixed with 70% ethanol were stained with RNase A (100 µg/mL) and propidium iodide (50 μg/ml) for 30 min at 37 °C, and DNA content distribution was measured using flow cytometry (BD Symphony A3) and analyzed with FlowJo software (v10.9). Apoptotic cell death was assessed via FITC-conjugated annexin V and propidium iodide staining.

H1299 cells = experiment: Cell viability (CellTiter-Glo); assay type: cell-based, human; design: unit not given here; conditions: 48 h, n=1-3: biological replicates
Protocol: as §1

KB-3-1cisR cells [2] = experiment: Cell viability (CellTiter-Glo); assay type: cell-based, human; design: unit not given here; conditions: 48 h, n=1-3: biological replicates
Protocol: as §1

PCI-37B cells [3] = experiment: Cell viability (CellTiter-Glo); assay type: cell-based, human; design: unit not given here; conditions: 48 h, n=1-3: biological replicates
Protocol: as §1

A549cisR cells [4] = experiment: Apoptotic cell death (annexin V/PI staining); assay type: cell-based, human; conditions: cisplatin 2 μg/ml, 48 h, n=1-4: biological replicates, listed as cis
KB-3-1cisR cells [5] = experiment: Apoptotic cell death (annexin V/PI staining); assay type: cell-based, human
PCI-37B cells [6] = experiment: Apoptotic cell death (annexin V/PI staining); assay type: cell-based, human; conditions: cisplatin 1 μg/ml, 48 h, n=1-3: biological replicates
HCT116 cells = experiment: Apoptotic cell death (annexin V/PI staining); assay type: cell-based, human; conditions: Supple Fig 6A
Protocol: as §1
(§2) Colon cancer cell lines, HCT116 (a) and HT-29 (b), were stably transduced with DLAT shRNA harboring lentivirus, followed by annexin V staining and CellTiter Glo Viability assay. Error bars represent SD and are from 3 independent biological replicates. P values were obtained by one-way ANOVA.
(§3) (1 picture or pasted object on this page, not shown here)

HT-29 cells = experiment: Apoptotic cell death (annexin V/PI staining); assay type: cell-based, human; conditions: Supple Fig 6B
Protocol: as §1, §2, §3

A549cisR cells [7] = experiment: Colony formation assay; assay type: cell-based, human; conditions: 2 μg/ml cisplatin 24 h, then 10 days, normalised, n=1-3: biological replicates
Protocol: as §1

KB-3-1cisR cells [8] = experiment: Colony formation assay; assay type: cell-based, human; conditions: 5 μg/ml cisplatin 24 h, then 10 days, normalised, n=1-3: biological replicates
Protocol: as §1

[9] = tested on: KB-3-1cisR xenograft tumors; experiment: KB-3-1cisR xenograft tumor growth (volume, weight); assay type: in vivo, athymic nu/nu mice; design: unit not given here; conditions: cisplatin 5 mg/kg i.p. twice a week, endpoint, n=1-8: individual mice, listed as cis
Protocol: All animal procedures were conducted based on the protocol (DAR-PROTO-201700885) approved by the Emory University Institutional Animal Care and Use Committee. Female athymic nu/nu mice (Hsd:Athymic Nude-Foxn1nu, 6-week-old; Envigo) were housed under specific pathogen-free (SPF) conditions in the Emory University animal facility. […] Mice were subcutaneously injected into the flank with 1 × 10^6 KB-3-1^cisR cells with or without DLAT knockdown. […] Tumors were collected at the experimental endpoint, and tumor proliferation was assessed using Ki-67 IHC staining. The localization, penetration, and efficacy of DMp39 were monitored by assessing the acetyl-[…] levels in tumors and fluorescence imaging analysis using an IVIS imaging system. Drug-induced organ toxicities, including splenomegaly, liver damage, and kidney injury, were monitored by assessing spleen index, alanine transaminase activity, and cystatin C levels in plasma.

RNA synthesis = experiment: Global RNA synthesis (5-EU labeling); assay type: cell-based, human; design: unit not given here
Protocol: Cellular metabolic states were examined through various assays. To gauge the levels of total intracellular or mitochondrial reactive oxygen species (ROS), cells were stained with CM-H2DCFDA or mitoSOX, respectively. Intracellular H2O2, NADPH, acetyl-CoA, and GSH/GSSG ratios were quantified using commercial assay kits as listed in the Reagents. Intracellular ATP levels were determined utilizing the ATP bioluminescent somatic cell assay and normalized to the total protein concentrations. The de novo synthesized RNA and proteins were assessed in cancer cells using commercial assays following the manufacturer’s protocols. In brief, O-propargyl-puromycin or uridine analog, 5-EU, was applied to stop translation or modify RNA. Polypeptides or modified RNA were measured using fluorescent azide with Ex/Em at 494/521 nm. PDC activity was determined by measuring the reduction of NAD+ to NADH during the conversion of pyruvate into acetyl-CoA.

In the case of `N.N.[Cl][Pt][Cl]` [cisplatin], the “cisplatin IC50” value (A549cisR cells [1]; DLAT #1 shRNA knockdown) is reported as 3.049 and 3.093 and 3.477, the “cisplatin IC50” value (A549cisR cells [1]; DLAT #2 shRNA knockdown) is reported as 3.68 and 3.342 and 3.385 and the “cisplatin IC50” value (A549cisR cells [1]; pLKO.1 control) is reported as 10.93 and 10.63 and 11.6. The “cisplatin IC50” value (H1299 cells; H1299, DLAT #1 shRNA knockdown) was 4.334 and 4.088 and 4.359, the “cisplatin IC50” value (H1299 cells; H1299, DLAT #2 shRNA knockdown) was 9.212 and 9.08 and 8.246 and the “cisplatin IC50” value (H1299 cells; H1299, pLKO.1 control) was 13.89 and 13.96 and 12.36. The “cisplatin IC50” value (KB-3-1cisR cells [2]; DLAT #1 shRNA knockdown) was 5.222 and 4.723 and 5.403, the “cisplatin IC50” value (KB-3-1cisR cells [2]; DLAT #2 shRNA knockdown) was 8.292 and 8.491 and 9.402 and the “cisplatin IC50” value (KB-3-1cisR cells [2]; pLKO.1 control) was 35.64 and 37.47 and 39.03. The “cisplatin IC50” value (PCI-37B cells [3]; DLAT #1 shRNA knockdown) was 0.6706 and 0.655 and 0.6977, the “cisplatin IC50” value (PCI-37B cells [3]; DLAT #2 shRNA knockdown) was 1.089 and 1.15 and 1.31 and the “cisplatin IC50” value (PCI-37B cells [3]; pLKO.1 control) was 2.128 and 2.267 and 2.42. For the same molecule, the Apoptotic death (A549cisR cells [4]; A549cisR pLKO.1+pLHCX) was 7.05 and 8.53 and 8.99 and 9.51, the Apoptotic death (A549cisR cells [4]; A549cisR shDLAT+DLAT(WT) rescue) was 7.31 and 8.35 and 8.93 and 10.11 and the Apoptotic death (KB-3-1cisR cells [5]; KB-3-1cisR pLKO.1+pLHCX, cisplatin 5 μg/ml, 48 h, n=1-4: biological replicates, listed as cis) was 8.39 and 8.75 and 8.86 and 8.83. For the same molecule, the Apoptotic death (KB-3-1cisR cells [5]; KB-3-1cisR shDLAT+DLAT(WT) rescue, cisplatin 5 μg/ml, 48 h, n=1-4: biological replicates, listed as cis) was 6.91 and 7.48 and 7.23, the Apoptotic death (KB-3-1cisR cells [5]; KB-3-1cisR, KQ, sheet Figure 6E, replicate n=3) was 10 and the Apoptotic death (KB-3-1cisR cells [5]; KB-3-1cisR, shDLAT, sheet Figure 5F, replicate n=1) was 63.6. For the same molecule, the Apoptotic death (KB-3-1cisR cells [5]; KB-3-1cisR, shDLAT, sheet Figure 5F, replicate n=2) was 64.3, the Apoptotic death (PCI-37B cells [6]; PCI-37B pLKO.1) was 19.17 and the Apoptotic death (PCI-37B cells [6]; PCI-37B shDLAT #1) was 38.02. For the same molecule, the Apoptotic death (PCI-37B cells [6]; PCI-37B shDLAT #2) was 33.33 and 33.41 and 32.54, the Apoptotic death (HCT116 cells; HCT116, pLKO.1 control cells + cis, replicate n=2) was 17.9 and the Apoptotic death (HCT116 cells; HCT116, shDLAT cells + cis, replicate n=2) was 15.5. The Apoptotic death (HCT116 cells; HCT116, shDLAT cells + cis, replicate n=3) was 18.3, the Apoptotic death (HT-29 cells; HT-29, pLKO.1 control cells + cis, replicate n=2) was 20 and the Apoptotic death (HT-29 cells; HT-29, pLKO.1 control cells + cis, replicate n=3) was 20.2. It also gave an Apoptotic death (HT-29 cells; HT-29, shDLAT cells + cis, replicate n=1) of 20.2, an Apoptotic death (HT-29 cells; HT-29, shDLAT cells + cis, replicate n=2) of 22.2 and an Apoptotic death (HT-29 cells; HT-29, shDLAT cells + cis, replicate n=3) of 22.9. For the same molecule, the Colony formation assay (A549cisR cells [7]; A549cisR pLKO.1) was 1.111 and 0.9965 and 1.059, the Colony formation assay (A549cisR cells [7]; A549cisR shDLAT #1) was 0.545 and 0.5035 and 0.4723 and the Colony formation assay (A549cisR cells [7]; A549cisR shDLAT #2) was 0.5398 and 0.5242 and 0.4931. For the same molecule, the Colony formation assay (KB-3-1cisR cells [8]; KB-3-1cisR pLKO.1) was 0.9446 and 0.763 and 0.8564, the Colony formation assay (KB-3-1cisR cells [8]; KB-3-1cisR shDLAT #1) was 0.1843 and 0.1505 and 0.2102 and the Colony formation assay (KB-3-1cisR cells [8]; KB-3-1cisR shDLAT #2) was 0.2154 and 0.1946 and 0.1246. The Tumor weight ([9]; KB-3-1cisR pLKO.1 xenograft) was 0.88 and 0.77 and 0.52 and 1.65 and 1.63 and 1.39 and 1.43 and 1.01, the Tumor weight ([9]; KB-3-1cisR shDLAT #1 xenograft) was 0.29 and 0.41 and 0.58 and 0.1 and 0.06 and 0.15 and 0.16 and 0.23 and the Tumor weight ([9]; KB-3-1cisR shDLAT #2 xenograft) was 0.63 and 0.5 and 0.66 and 0.02 and 0.08 and 0.19 and 0.34 and 0.36. The “Global RNA synthase” value (RNA synthesis; A549cisR, pLKO.1, n=1 (Figure 3B)) was 35.2, the “Global RNA synthase” value (RNA synthesis; A549cisR, pLKO.1, n=2 (Figure 3B)) was 34.2 and the “Global RNA synthase” value (RNA synthesis; A549cisR, pLKO.1, n=3 (Figure 3B)) was 34.8. For the same molecule, the “Global RNA synthase” value (RNA synthesis; A549cisR, shDLAT, n=1 (Figure 3B)) was 36.6, the “Global RNA synthase” value (RNA synthesis; A549cisR, shDLAT, n=2 (Figure 3B)) was 34 and the “Global RNA synthase” value (RNA synthesis; A549cisR, shDLAT, n=3 (Figure 3B)) was 33. For the same molecule, the “Global RNA synthase” value (RNA synthesis; KB-3-1cisR, pLKO.1, n=1 (Figure 3B)) was 34.8, the “Global RNA synthase” value (RNA synthesis; KB-3-1cisR, pLKO.1, n=2 (Figure 3B)) was 33.4 and the “Global RNA synthase” value (RNA synthesis; KB-3-1cisR, pLKO.1, n=3 (Figure 3B)) was 32.4. The “Global RNA synthase” value (RNA synthesis; KB-3-1cisR, shDLAT, n=1 (Figure 3B)) was 33.6, the “Global RNA synthase” value (RNA synthesis; KB-3-1cisR, shDLAT, n=2 (Figure 3B)) was 31.4 and the “Global RNA synthase” value (RNA synthesis; KB-3-1cisR, shDLAT, n=3 (Figure 3B)) was 31.6.
